Data from the supplement of paper PMC11451515.

System: SEM cells
Experiment: cell viability relative to DMSO control; higher = less cytotoxic
Settings: 48 h
Method in brief: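 Before seeding, each leukemia line was adapted for at least four passages in each medium. NOMO1 or SEM cells (500 cells/well) and P12-Ichikawa cells (1000 cells/well) went into 1536-well plates at 5 μl, then received library compounds in DMSO by pin dosing across 11 threefold concentrations, 47 μM to 0.79 nM. Readout was CellTiter-Glo One luminescence after 48 h at 37°C, and viability is given as a per-plate percentage of DMSO wells, with cell-free wells as background.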

[1] = HPLM + 10% dialyzed FBS, 0.000781 µM
[2] = HPLM + 10% dialyzed FBS, 0.00234 µM
[3] = HPLM + 10% dialyzed FBS, 0.00702 µM
[4] = HPLM + 10% dialyzed FBS, 0.0211 µM
[5] = HPLM + 10% dialyzed FBS, 0.0632 µM
[6] = HPLM + 10% dialyzed FBS, 0.19 µM
[7] = HPLM + 10% dialyzed FBS, 0.569 µM
[8] = HPLM + 10% dialyzed FBS, 1.71 µM
[9] = HPLM + 10% dialyzed FBS, 5.12 µM
[10] = HPLM + 10% dialyzed FBS, 15.4 µM
[11] = HPLM + 10% dialyzed FBS, 46.1 µM
[12] = RPMI 5 mM glucose + 10% FBS, 0.000781 µM
[13] = RPMI 5 mM glucose + 10% FBS, 0.00234 µM
[14] = RPMI 5 mM glucose + 10% FBS, 0.00702 µM
[15] = RPMI 5 mM glucose + 10% FBS, 0.0211 µM
[16] = RPMI 5 mM glucose + 10% FBS, 0.0632 µM
[17] = RPMI 5 mM glucose + 10% FBS, 0.19 µM
[18] = RPMI 5 mM glucose + 10% FBS, 0.569 µM
[19] = RPMI 5 mM glucose + 10% FBS, 1.71 µM
[20] = RPMI 5 mM glucose + 10% FBS, 5.12 µM
[21] = RPMI 5 mM glucose + 10% FBS, 15.4 µM
[22] = RPMI 5 mM glucose + 10% FBS, 46.1 µM
[23] = RPMI 5 mM glucose + 10% dialyzed FBS, 0.000781 µM
[24] = RPMI 5 mM glucose + 10% dialyzed FBS, 0.00234 µM
[25] = RPMI 5 mM glucose + 10% dialyzed FBS, 0.00702 µM
[26] = RPMI 5 mM glucose + 10% dialyzed FBS, 0.0211 µM
[27] = RPMI 5 mM glucose + 10% dialyzed FBS, 0.0632 µM
[28] = RPMI 5 mM glucose + 10% dialyzed FBS, 0.19 µM
[29] = RPMI 5 mM glucose + 10% dialyzed FBS, 0.569 µM
[30] = RPMI 5 mM glucose + 10% dialyzed FBS, 1.71 µM
[31] = RPMI 5 mM glucose + 10% dialyzed FBS, 5.12 µM
[32] = RPMI 5 mM glucose + 10% dialyzed FBS, 15.4 µM
[33] = RPMI 5 mM glucose + 10% dialyzed FBS, 46.1 µM

SMILES | cell viability [1] [%] | cell viability [2] [%] | cell viability [3] [%] | cell viability [4] [%] | cell viability [5] [%] | cell viability [6] [%] | cell viability [7] [%] | cell viability [8] [%] | cell viability [9] [%] | cell viability [10] [%] | cell viability [11] [%] | cell viability [12] [%] | cell viability [13] [%] | cell viability [14] [%] | cell viability [15] [%] | cell viability [16] [%] | cell viability [17] [%] | cell viability [18] [%] | cell viability [19] [%] | cell viability [20] [%] | cell viability [21] [%] | cell viability [22] [%] | cell viability [23] [%] | cell viability [24] [%] | cell viability [25] [%] | cell viability [26] [%] | cell viability [27] [%] | cell viability [28] [%] | cell viability [29] [%] | cell viability [30] [%] | cell viability [31] [%] | cell viability [32] [%] | cell viability [33] [%]
C[C@@H](Cc1cc2c(c(C(N)=O)c1)N(CCCO)CC2)NCCOc1ccccc1OCC(F)(F)F | 86.8 | 85.3 | 76.7 | 82.9 | 99 | 96.7 | 95.5 | 97.3 | 101 | 98.1 | 88.7 | 95.1 | 111 | 114 | 112 | 119 | 107 | 121 | 101 | 102 | 110 | 99.2 | 93.4 | 98.3 | 101 | 110 | 123 | 118 | 111 | 142 | 110 | 110 | 82.9
N#CC1(c2cccc(C(=O)Nc3cc(Oc4ccc5nc(NC(=O)C6CC6)sc5n4)ccc3F)c2Cl)CC1 | 93.5 | 95.8 | 106 | 93.9 | 117 | 118 | 102 | 94.9 | 82.1 | 46.7 | 30.6 | 75.1 | 89 | 90.5 | 74.5 | 84.1 | 68.2 | 74.5 | 59.1 | 39.4 | 17.4 | 17.6 | 101 | 106 | 106 | 105 | 105 | 102 | 108 | 83.2 | 69.6 | 37.1 | 26.3
CC1=CC/2=C(C=C1C)N(C[C@@H](O)[C@@H](O)[C@@H](O)CO)C/3=N/C(=O)NC(=O)C3=N2 | 117 | 122 | 126 | 118 | 113 | 117 | 129 | 116 | 115 | 127 | 105 | 85.8 | 98.8 | 86.8 | 98.6 | 93.3 | 97.8 | 92.3 | 77.9 | 77.5 | 90.3 | 85.5 | 110 | 127 | 107 | 106 | 110 | 107 | 118 | 113 | 117 | 129 | 102
Cc1cc(/C=c2/sc3nc4ccccc4n3c2=O)c(C)n1-c1ccccc1 | 115 | 121 | 93.5 | 122 | 112 | 128 | 125 | 108 | 128 | 110 | 101 | 117 | 119 | 113 | 137 | 117 | 122 | 130 | 128 | 125 | 125 | 118 | 117 | 110 | 99.1 | 121 | 128 | 122 | 108 | 118 | 111 | 113 | 116
CCN(CC)CCCC(C)Nc1ccnc2cc(Cl)ccc12 (stereo not drawn) | 108 | 113 | 116 | 121 | 122 | 128 | 116 | 117 | 134 | 127 | 102 | 102 | 117 | 119 | 104 | 109 | 111 | 100 | 129 | 118 | 106 | 94.4 | 105 | 98.6 | 103 | 103 | 99.9 | 115 | 109 | 129 | 104 | 87 | 92.4
C[C@@H]1CC[C@@]2(CC[C@]3(C)\C(=C/C[C@@H]4[C@@]5(C)C[C@@H](O)[C@H](O)[C@@](C)(CO)[C@@H]5CC[C@@]34C)[C@@H]2[C@H]1C)C(O)=O | 65.5 | 75.1 | 80.4 | 86.6 | 76.5 | 90.6 | 99.1 | 91.9 | 96.5 | 110 | 115 | 114 | 110 | 107 | 120 | 115 | 106 | 128 | 127 | 110 | 120 | 7.07 | 87.9 | 93.8 | 105 | 96 | 103 | 76.4 | 66.6 | 46.1 | 229 | 158 | 127
CC(=O)OCC(=O)[C@@]1(O)CC[C@H]2[C@@H]3CCC/4=C/C(=O)/C=C\[C@]4(C)[C@H]3[C@@H](O)C[C@]12C | 117 | 106 | 104 | 112 | 103 | 78.8 | 69.3 | 52.7 | 48.2 | 88 | 90.5 | 121 | 124 | 130 | 124 | 122 | 99.3 | 110 | 81.4 | 60.4 | 128 | 121 | – | – | – | – | – | – | – | – | – | – | –
CCN1\C=C(C(O)=O)/C(=O)C2=C1C(=C(N3CCNC(C)C3)C(=C2)F)F (stereo not drawn) | 92.5 | 99 | 106 | 117 | 109 | 95.3 | 116 | 110 | 118 | 97.3 | 112 | 99.8 | 95 | 111 | 111 | 110 | 100 | 108 | 110 | 112 | 107 | 96.4 | 93.4 | 105 | 116 | 119 | 133 | 107 | 125 | 117 | 102 | 97 | 119
Cc1ccc(C(=O)Nc2ccc([S+](=O)([O-])O)c3cc([S+](=O)([O-])O)cc([S+](=O)([O-])O)c23)cc1NC(=O)c1cccc(NC(=O)Nc2cccc(C(=O)Nc3cc(C(=O)Nc4ccc([S+](=O)([O-])O)c5cc([S+](=O)([O-])O)cc([S+](=O)([O-])O)c45)ccc3C)c2)c1 | 96.8 | 105 | 96.2 | 100 | 115 | 91.4 | 101 | 93.8 | 68.5 | 44.4 | 33.1 | 109 | 128 | 120 | 121 | 113 | 112 | 100 | 115 | 52.7 | 21.2 | 22.7 | 85 | 97.2 | 100 | 88.6 | 98.4 | 86 | 94.9 | 86.5 | 55.1 | 23.9 | 23.7
Clc1ccc(C(c2ccccc2Cl)C(Cl)Cl)cc1 (stereo not drawn) | 119 | 116 | 120 | 121 | 139 | 36.1 | 117 | 126 | 33.2 | 109 | 85.9 | 116 | 121 | 111 | 110 | 112 | 36.7 | 137 | 106 | 12.6 | 97.6 | 75.1 | – | – | – | – | – | – | – | – | – | – | –
Nc1ncnc2nc(-c3ccc(N4CCOCC4)nc3)cc(-c3cccc(Br)c3)c12 | 109 | 107 | 115 | 118 | 114 | 122 | 117 | 115 | 109 | 110 | 96.5 | 93.2 | 124 | 77.9 | 111 | 114 | 110 | 104 | 105 | 114 | 106 | 83 | 125 | 124 | 102 | 133 | 125 | 127 | 132 | 126 | 133 | 123 | 93
CN1CCN(CC1)C2=CC3=C([NH]C(=N3)C/4=C(\N)C5=C(F)C=CC=C5NC4=O)C=C2 | 39.9 | 48.9 | 44.5 | 45.4 | 31 | 46.1 | 36.6 | 26.5 | 21.4 | 17.3 | 5.83 | 52.6 | 65.8 | 50 | 54.7 | 37.4 | 44.5 | 36.2 | 25.6 | 19.5 | 9.89 | 8.79 | 40.7 | 58.3 | 43.3 | 41.6 | 31.2 | 34.6 | 32.7 | 27.2 | 19.8 | 10.5 | 5.75
COc1cc(C[C@@H](CO)[C@H](CO)Cc2ccc(O)c(OC)c2)ccc1O | 84 | 89.3 | 92.1 | 95 | 104 | 109 | 114 | 107 | 111 | 89.1 | 105 | 91.8 | 85.1 | 88.4 | 81.8 | 91.7 | 105 | 106 | 104 | 105 | 110 | 93.3 | 85.7 | 92.7 | 98.1 | 99.7 | 113 | 102 | 105 | 112 | 108 | 108 | 110
Clc1ccc(C(c2ccc(Cl)cc2)[n+]2ccn(CC(OCc3ccc(Cl)cc3Cl)c3ccc(Cl)cc3Cl)c2)cc1 (stereo not drawn) | 108 | 121 | 107 | 105 | 117 | 112 | 108 | 117 | 117 | 61 | 5.22 | 109 | 111 | 117 | 120 | 132 | 127 | 124 | 111 | 106 | 37.7 | 1.63 | 112 | 117 | 118 | 109 | 108 | 123 | 124 | 115 | 125 | 83.3 | 3.06
O=C(O)c1cccc(-c2noc(-c3ccccc3F)n2)c1 | 106 | 109 | 92.3 | 100 | 101 | 110 | 102 | 104 | 104 | 92.3 | 88.1 | 88.1 | 94.7 | 105 | 94.1 | 99.6 | 107 | 101 | 99.3 | 98.3 | 84.3 | 73.5 | 87.1 | 106 | 106 | 108 | 115 | 94.2 | 122 | 112 | 108 | 95.7 | 85.7
